According to PMC5201116, “Bioactive Flavonoids and Catechols as Hif1 and Nrf2 Protein Stabilizers - Implications for Parkinson’s Disease” (Aging and Disease, 2016):

Columns and labels:
[1] = system: HRE-luciferase reporter (HT22 hippocampal cell line); test: HRE-luc reporter assay; type: cell-based; details: Mus musculus, HT-22, 3 h; at 10 µM; read-out: HRE-luc fold activation
[2] = system: VEGF mRNA in immature primary cortical neurons; test: VEGF mRNA induction, real-time RT-PCR; type: cell-based; details: Fig. 4B
Description: For VEGF gene expression studies, total RNA was isolated from immature primary cortical neurons, pretreated overnight with the indicated concentration of a bioactive compound, using the NucleoSpin RNA II kit (Macherey-Nagel, Bethlehem, PA) according to manufacturer’s protocol. Real-time PCR was performed in triplicate as a duplex reaction using a VEGF (Mm01281449_m1) gene expression assay with a 6-carboxyfluorescein-labeled probe, and a β actin gene expression assay with a VIC-labeled probe (Applied Biosystems, Foster City, CA), so that gene amplification could be normalized to β actin. These experiments were performed using a 7500 Real-time PCR System (Applied Biosystems) using standard PCR protocol and amplification conditions.

[3] = system: primary neuronal cultures treated with 5 mM HCA; test: Glutathione depletion (HCA) model, MTT viability; type: cell-based, rat; details: glutathione depletion model, Fig. 5
Description: Primary neuronal cultures were prepared from the forebrains of Sprague-Dawley rat embryos (E17) and plated on 96 well plates at a 10^6 cells/ml density. After 24 hours, cells were rinsed with warm PBS and then placed in minimum Essential Medium (MEM; Life Technologies, Grand Island, NY) containing 5 mM HCA in the presence of a compound of interest at varied concentrations. Cells were incubated for 24 h or longer to see 90% cell death in HCA treated controls. Viability was assessed by the MTT (4,5-dimethylthiazol-2-yl)-2,5-diphenyltetrazolium bromide) assay.

[4] = system: C57Bl6 mice, MPTP model of Parkinson's disease; test: Acute MPTP mouse model: striatal dopamine and metabolites by HPLC; type: in vivo
Description: Acute MPTP-intoxication paradigm was used to test the neuroprotective effects of NDGA using male C57Bl6 mice. In this protocol, 10-week-old C57Bl6 mice (n = 8-10 per group) were divided into four different groups consisting of 1) a control group treated with saline alone; 2) a group treated with MPTP alone; 3) a group treated with NDGA alone and; 4) group treated with NDGA in combination with MPTP. NDGA was dissolved in 1:4 ethanol:neobee oil (a derivative of coconut oil). MPTP 10 mg/kg free base was administered intraperitoneally three times a day every two hours. Animals with NDGA in combination with MPTP were administered NDGA by oral gavage with 50 and 100mg/kg/day body weight of the drug in 100 microliter volume once a day for 4 days before MPTP and once a day for 3 days after MPTP. On the day of MPTP NDGA was administered to mice 2 hours before the initiation of MPTP. Animals belonging to MPTP and control groups received the vehicle (ethanol:neobee oil, 1:4) whereas the drug alone group received respective doses of NDGA at the same frequency. All animals were sacrificed on the 7th day after MPTP.
Striatal levels of dopamine (DA) and its metabolites 3, 4-dihydroxyphenylacetic acid (DOPAC), and homovanillic acid (HVA) were measured after sonication and centrifugation in chilled 0.1 M perchloric acid (PCA, 100 µl/mg tissue) as previously described. Briefly, 15 µl supernatant was isocratically eluted through an 80 x 4.6 mm C18 column (ESA, Inc. Chelmsford, MA) with a mobile phase containing 0.1 M LiH2PO4, 0.85 mM 1-octanesulfonic acid and 10% (v/v) methanol and detected by a 2-channel Coulochem II electrochemical detector (ESA, Inc. Chelmsford, MA). Concentrations of dopamine, DOPAC and HVA are expressed as ng per mg protein. The protein concentrations of tissue homogenates were measured according to BCA assay (Pierce Biotech). For MPP+ measurement NDGA was administered at a dose of 100mg/kg/day once daily for four days followed by a dose on the 5th day 30 minutes before MPTP (30mg/kg free base). Striatal tissues were sonicated and centrifuged in 0.1 M PCA and an aliquot of supernatant was injected onto a Brownlee aquapore x 03-224 cation exchange column (Rainin, Woburn, MA). Samples were eluted isocratically with 20 mM boric acid-sodium borate buffer, pH 7.75, containing 3 mM tetrabutylammonium hydrogen sulfate, 0.25 mM 1-heptanesulfonic acid and 10% isopropanol. MPP^+ levels were detected with a fluorescence detector set by excitation at 295 nm and emission at 375nm.

[5] = system: C57Bl6 mice, MPTP model of Parkinson's disease; test: Stereological counts of Nissl- and TH-positive neurons in SNpc, MPTP model; type: in vivo, mouse; details: NDGA 100mg/kg/day, Fig. 7
Description: Acute MPTP-intoxication paradigm was used to test the neuroprotective effects of NDGA using male C57Bl6 mice. In this protocol, 10-week-old C57Bl6 mice (n = 8-10 per group) were divided into four different groups consisting of 1) a control group treated with saline alone; 2) a group treated with MPTP alone; 3) a group treated with NDGA alone and; 4) group treated with NDGA in combination with MPTP. NDGA was dissolved in 1:4 ethanol:neobee oil (a derivative of coconut oil). MPTP 10 mg/kg free base was administered intraperitoneally three times a day every two hours. Animals with NDGA in combination with MPTP were administered NDGA by oral gavage with 50 and 100mg/kg/day body weight of the drug in 100 microliter volume once a day for 4 days before MPTP and once a day for 3 days after MPTP. On the day of MPTP NDGA was administered to mice 2 hours before the initiation of MPTP. Animals belonging to MPTP and control groups received the vehicle (ethanol:neobee oil, 1:4) whereas the drug alone group received respective doses of NDGA at the same frequency. All animals were sacrificed on the 7th day after MPTP. […]

[6] = NDGA+MPTP group, NDGA 100mg/kg/day oral, 7th day after MPTP

SMILES: CC(Cc1ccc(O)c(O)c1)C(C)Cc1ccc(O)c(O)c1 (stereo not drawn) [compound 28, 4,4'-(2,3-dimethylbutane-1,4-diyl)dibenzene-1,2-diol]
- fold induction at 10 µM [1]: 2 ± 0.2
- VEGF induction potency relative to FG-4592 [2]: at least 2 times
- concentration at which neuroprotection begins [3]: 2.5 µM
- protection against MPTP-induced loss of striatal dopamine, DOPAC and HVA ([4]; NDGA 50mg/kg/day): not
- protection against MPTP-induced loss of striatal dopamine, DOPAC and HVA ([4]; NDGA 100mg/kg/day): protected
- Striatal DOPAC ([4]; NDGA alone group, oral gavage): 7.59 ± 1.35 ng/mg protein
- Striatal DOPAMINE ([4]; NDGA alone group, oral gavage): 88.4 ± 6.2 ng/mg protein
- Striatal HVA ([4]; NDGA alone group, oral gavage): 7.5 ± 1.66 ng/mg protein
- Striatal DOPAC [4, 6]: 6.04 ± 1.14 ng/mg protein
- Striatal DOPAMINE [4, 6]: 55.3 ± 5.7 ng/mg protein
- Striatal HVA [4, 6]: 7.4 ± 0.96 ng/mg protein
- MPTP-induced loss of total (Nissl-positive) and TH-immunopositive neurons in SNpc [5]: significant attenuation
